# Data: patent US20070190628A1, “Yeast food composition for fuel ethanol production” (priority 2006, published 2007)
# How the values were obtained:
# Assay type in all cases: cell-based, Saccharomyces cerevisiae
# active dry yeast “z” [1] = experiment: Individual nutritive elements added to normal gravity corn mash: fermentation rate and viable cell numbers
# Experimental: Normal gravity corn mash was prepared using ground #2 yellow dent corn obtained from Commercial Alcohols Inc. (275 Bloomfield Road, Chatham, Ontario, Canada N7M 5J5). […] One part by weight of ground corn was dispersed into three parts of 50° C., sterile dH2O containing 1 mM CaCl2.2H2O. To minimize the development of excessive viscosity during gelatinization, 1.25 mL of high temperature (HT-2X) α-amylase such as was supplied by Alltech Inc. in Nicholasville, Ky., USA (HT-2X α-amylase is no longer available from Alltech), was added per litre of mash as the ground corn was dispersed. It should be noted that if Ca-independent alpha amylases are used such as Termamyl® SC supplied by Novozymes North America in Franklinton, N.C., USA, then the 1 mM CaCl2.2H2O is not required. Following the addition of the ground corn and a five-minute mixing period to produce a homogenous mixture, the temperature was increased until the mash reached 94° C. where it was held at this temperature for 60 min with continued stirring. The temperature of the gelatinized starch was then reduced to 80° C. and liquefied by a second dose of HT-2X αx-amylase (1.25 mL/L) with continued stirring for 30 min. Sterile Celstir® (Wheaton Scientific, Millville, N.J.) fermentor vessels were filled with 1 L aliquots of this mash. To each fermentor vessel, filter-sterilized (25 mm, 0.2 μm Acrodisc® syringe filter, Pall Corporation, Ann Arbor, Mich.) urea (Fisher Scientific, Co., NJ), was added to achieve a final concentration of 8 mM. Cold-sterilization of the mash was assured by the addition of 100 μL of diethyl pyrocarbonate (DEPC, Sigma Chemical Co.) per litre of mash mixing the mash mechanically (IKA-Labortechnik, Staufen, Germany) for 5-10 min followed by cooling the fermentor vessels at 4° C. cold room for ˜72 hrs. The fermentor vessels were then removed from the cold room, connected to 30° C. water bath circulators and mixed. Glucoamylase in the form of Allcholase II 400 supplied by Alltech Inc. was then added (1.5 mL/L mash) 30 min prior to yeast inoculation to initiate saccharification of the dextrins formed during gelatinization and liquefaction (it should be noted that Allcholase II 400 is no longer available and any glucoamylase may be used). The mash thus prepared contained 19-20 g of dissolved solids/100 mL of mash as determined by a digital density meter analyzer (model DMA-45, Anton Paar KG, Graz, Austria) maintained at 20° C.
# Eleven grams of a commercially available active dry yeast, designated as “z”, were rehydrated by dispersal in 99 mL of preheated 38° C., 0.1% (w/v) sterile water and incubation for 20 min with periodic shaking in a 38° C. water bath. Fermentor vessels containing normal density corn mash were prepared as described above and inoculated with sufficient active yeast to provide an initial viable cell count of 1×10^7 cells per mL mash. The optimal fermentation temperature for the active dry yeast “z” was determined by conducting fermentations at 30°, 34°, 36°, 38°, and 40° C.
# The effects of individual elements on yeast cell biomass production and fermentation in a fermentation feedstock were assessed by separately supplementing of corn mash with nitrogen, phosphorus, magnesium, sulphur and zinc. Nitrogen effects were assessed in corn mashes by the additions of urea to provide final concentrations in the mash of […]. Phosphorus effects were assessed in corn mashes amended with 16 mM urea, by the additions of (NH4)2HPO4 (BDH Chemicals Inc, Toronto, Ont., MW: 132.06) to provide final concentrations of 0, 0.1, 0.2, 0.4, 0.6, and 0.8 g of (NH4)2HPO4/L of mash. Magnesium effects were assessed in corn mashes amended with 16 mM urea, by the additions of MgSO4.7H2O (BDH Chemicals Inc., MW. 246.48) to provide final concentrations of 0, 0.025, 0.049, 0.074, 0.099, 0.148, 0.197 g of MgSO4.7H2O/L of mash. […]
# active dry yeast “b” = experiment: Fermentation performance of commercial active dry yeasts in normal gravity corn mash; conditions: strain “b”
# Experimental: (§1) The effects of the defined urea plus salts-based yeast food on fermentation performance of seven commercial active dry yeasts currently used by the fuel alcohol industry (Bellisimi et al., 2005, Am. Soc. Brew. Chem. J. Vol. 63, pp. 107-112) and designated herein as strains “b”, “d”, “e”, “w”, “x”, “y”, and “z”, were assessed in normal gravity corn mash prepared as described in Example 1. The commercial active dry yeasts were assessed with the following corn mash supplanted as follows: (a) 8 mM urea (control), or (b) 1% yeast extract, or (c) 8 mM urea supplemented with the defined urea plus salts yeast food of the present invention. The fermentation methods were followed as outlined in Example 4. Fermentation rates were determined by repeated sampling and sample processing at specific time intervals as described in Example 1.
# active dry yeast “d” = experiment: as above; conditions: strain “d”
# Experimental: as §1
# active dry yeast “e” = experiment: as above; conditions: strain “e”
# Experimental: as §1
# active dry yeast “w” = experiment: as above; conditions: strain “w”
# Experimental: as §1
# active dry yeast “x” = experiment: as above; conditions: strain “x”
# Experimental: as §1
# active dry yeast “z” [2] = experiment: as above; conditions: strain “z”
# Experimental: as §1
# [3] = complete disappearance of 20 g of dissolved solids/100 mL
compound,measurement,setting,value
NC(N)=O [urea],highest yeast cell counts,active dry yeast “z” [1]; corn mash with 8 mM and 16 mM urea,3.3×10^8 CFU/mL
same,increase of cell numbers,"active dry yeast “z” [1]; corn mash with 8 mM and 16 mM urea, versus no urea",50%
same,increase of the rate of dissolved solids utilization,"active dry yeast “z” [1]; urea 16-32 mM in corn mash, 30° C.",approximately 2 fold
same,urea supplementation rate at which the maximum fermentation rate was observed,active dry yeast “z” [1]; urea tested up to 32 mM,16 mM
same,Fermentation rate,active dry yeast “b”; normal gravity corn mash,0.73 ± 0.04 g/100 mL/hr
same,Fermentation time,active dry yeast “b”; [3],72 h
same,Fermentation rate,active dry yeast “d”; normal gravity corn mash,0.74 ± 0.03 g/100 mL/hr
same,Fermentation time,active dry yeast “d”; [3],48 h
same,Fermentation rate,active dry yeast “e”; normal gravity corn mash,0.67 ± 0.01 g/100 mL/hr
same,Fermentation time,active dry yeast “e”; [3],72 h
same,Fermentation rate,active dry yeast “w”; normal gravity corn mash,0.82 ± 0.02 g/100 mL/hr
same,Fermentation time,active dry yeast “w”; [3],48 h
same,Fermentation rate,active dry yeast “x”; normal gravity corn mash,0.80 ± 0.06 g/100 mL/hr
same,Fermentation time,active dry yeast “x”; [3],48 h
same,Fermentation rate,active dry yeast “z” [2]; normal gravity corn mash,0.79 ± 0.01 g/100 mL/hr
same,Fermentation time,active dry yeast “z” [2]; [3],48 h
